# Key:
# [1] = tested on: comportement de rotation chez la souris après lésion unilatérale du striatum; assay: rotation behaviour after unilateral 6-hydroxydopamine lesion of the striatum (dopaminergic mechanism); format: in vivo, souris femelles Charles River CD1; settings: oral, dose corresponding to 0,15 mg/kg free base; for activité dans le temps (rotations): course over 1, 3 and 6 h; for activité dans le temps (rotations) / somme algébrique des rotations ipsilatérales et contralatérales à la lésion: result in words; for somme algébrique des rotations ipsilatérales et contralatérales à la lésion: versus controls
# From the text: Le mécanisme dopaminergique d'un composé représentatif de l'invention, la 2-(1-pipérazinyl)pyrimidine mcno-L (+) - tartrate, a été étudié en comparaison avec la base libre correspondante et son chlorhydrate par l'analyse du comportement de rotation chez la souris après lésion unilatérale du striatum (P. Protais et al. J. Pharmacol. 1976, 7, 251).
# Des souris femelles Charles River CD1 pesant de 20 à 24 g ont préalablement fait l'objet d'une lésion unilatérale du striatum par injection stéréotaxique de 6-hydroxydopamine à raison de 8 mcg par animal. Une semaine après cette opération, la 2-(1-pipérazinyl)pyrimidine mono-L(+)-tartrate, la 2-(l-pipérazinyl)pyrimidine chlorhydrate et la base libre ont été administrées par voie orale à des groupes de 6 souris à une dose correspondant à 0,15 mg/kg de base libre. Le nombre de rotations à été évalué, pendant 2 minutes, 1, 3 et 6 heures après l'administration des trois produits. Les rotations ipsilatérales à la lésion ont été comptées positivement, celles contralatérales ont été comptées négativement. La somme algébrique des rotations pour chaque groupe d'animaux traités a été comparée à celle du groupe d'animaux témoins n'ayant reçu que le véhicule (sérum physiologique).
# Le Tableau IV ci-dessous montre la variation pour cent, par rapport aux animaux témoins, des rotations.
# [2] = free base, tested within a series of compounds; literature; cited from earlier work
# [3] = tested on: catalepsie provoquée par la prochlorpérazine; assay: antagonism of the onset of prochlorperazine-induced catalepsy (cork test, predictive of antidepressant activity); format: in vivo, rats mâles Wistar; settings: 1 h before prochlorperazine 10 mg/kg s.c., read 5 h later
# From the text: L'activité antidépressive des composés de l'invention a été évaluée dans le test de l'antagonisme vis-à-vis de l'installation de la catalepsie provoquée par la prochlorpérazine (K. Eizière et al., Arzneimittel Forschung, 1982, 32 (II), 824).
# Un composé représentatif de l'invention, à savoir le monomaléate de 2-(1-pipérazinyl)pyrimidine, a été administré par voie intrapéritonéale à des groupes de 10 rats mâles Wistar pesant 220-240 g; des animaux de contrôle ont été en même temps traités par du sérum physiologique. Une heure après, les animaux ont reçu, par voie sous-cutanée, de la prochlcrpérazine à une dose de 10 mg/kg. Cinq heures après cette administration, le nombre d'animaux cataleptiques a été estimé par le test du bouchon. Ce test consiste à positionner les animaux de telle sorte qu'ils puissent maintenir pendant au moins 20 seconds leurs pattes en appui sur une colonne formée de trois bouchons de liège superposés (hauteur totale 11 cm). Les performances réalisées pour chaque groupe d'animaux ont été comparées à celles du groupe d'animaux témoins n'ayant reçu que le véhicule et la prcchlorpérazine.
# Le tableau ci-dessous montre le pourcentage d'antagonisme de l'installation de la catalepsie provoquée par la prochlorpérazine.
# [4] = tested on: toxicité de groupe due à l'amphétamine; assay: antagonism of amphetamine group toxicity (predictive of antipsychotic action); format: in vivo, souris Charles Fiver CD1; settings: Mus musculus, ip; median effective dose against mortality due to amphetamine 30 mg/kg i.p.; compound i.p. 30 min before; mortality over 24 h; confidence limits 10,1 - 26,7; read-out: DE50 (limites de confiance)
# From the text: L'activité antipsychotique d'un composé représentatif, le monomaléate de 2-(1-pipérazinyl)pyrimidine, a été déterminée dans le test de l'antagonisme de la toxicité de groupe due à l'amphétamine (J.H. Burn et al., Arch. Int. Pharmacodyn. Ther. 1958, 113, 290).
# Le monomaléate de 2-(1-pipérazinyl)pyrimidine a Été administré à des doses croissantes par voie intrapéritonéale à des lots de 10 souris Charles Fiver CD1 pesant 20-22 g et groupées dans des cages de 22 cm de long, 12 cm de large et 12 cm de haute. Trente minutes après l'administration, on a injecté par voie intrapéritonéale de l'amphétamine à la dose de 30 mg/kg. La mortalité des animaux a été évaluée durant les 24 h qui ont suivi l'injection d'amphétamine et comparée, dans chaque groupe, à celle du groupe d'animaux témoins n'ayant reçu que le véhicule (sérum ghysiologigue).
# Le tableau ci-dessous montre la dose efficace médiane (DE5G) d'antagonisme de la mortalité due à l'amphétamine.
SMILES,activité dans le temps (rotations) [1],somme algébrique des rotations ipsilatérales et contralatérales à la lésion [1],activité analgésique ou antifilariale [2],"% d'antagonisme ([3]; dose 0,1 mg/kg i.p.) [%]",% d'antagonisme ([3]; dose 1 mg/kg i.p.) [%],ED50 [4] [mg/kg],variation négative (variation pour cent des rotations par rapport aux animaux témoins) ([1]; 6th hour) [%]
"c1cnc(N2CCNCC2)nc1 [base libre, 2-(1-pipérazinyl)pyrimidine]",tendence à la diminution de l'activité dans le temps,réduit d'une façon significative,aucun n'a montré d'activité analgésique ou antifilariale,,,,
"c1cnc(N2CCNCC2)nc1 [chlorhydrate, 2-(l-pipérazinyl)pyrimidine chlorhydrate]",inactif aussi dans le temps,n'a pas d'effet significatif,,,,,
"c1cnc(N2CCNCC2)nc1 [2-(1-pipérazinyl)pyrimidine monomaléate, monomaléatede 2-(l-pipérazinyl)pyrimidine]",,,,20,80,16.5,
c1cnc(N2CCNCC2)nc1 [2-(1-pipérazinyl)pyrimidine monc-L(+)-tartrate] [mono-L(+)-tartratede 2-(1-pipérazinyl)pyrimidine],son activité augmente significativement dans le temps,,,,,,> 100
